{"source": "patent EP4640052A1", "about": "(BASF SE, priority 2024, dated 2025)", "key": {"[1]": {"test_system": "Sclerotinia sclerotiorum (SCLESC)", "assay": "microbe, parasite or virus in culture", "assay_type": "cell-based"}, "[2]": {"test_system": "Pyricularia oryzae (PYRIOR)", "assay": "microbe, parasite or virus in culture", "assay_type": "cell-based", "details": "for Observed efficacy: single active; for inhibition of growth at 0.016 ppm / inhibition of growth at 0.063 ppm: Pyricularia oryzae, 168 h, read-out: Observed efficacy"}, "[3]": {"test_system": "Corynespora cassiicola (CORYCA), Qol resistant (G143A); SDHI resistant (N75S in SdHC)", "assay_type": "cell-based"}, "[4]": {"test_system": "Septoria tritici (SEPTTR)", "assay": "microbe, parasite or virus in culture", "assay_type": "cell-based", "details": "for inhibition of growth at 0.063 ppm / inhibition of growth at 0.25 ppm / inhibition of growth at 1 ppm: Zymoseptoria tritici, 168 h, read-out: Observed efficacy"}, "[5]": {"test_system": "Pyrenophora teres (PYRNTE), Qol resistant (F129L)", "assay": "microbe, parasite or virus in culture", "assay_type": "cell-based"}, "[6]": {"test_system": "Alternaria solani (ALTESO)", "assay": "microbe, parasite or virus in culture", "assay_type": "cell-based", "details": "Alternaria solani, 168 h, read-out: Observed efficacy"}, "[7]": {"test_system": "Monilinia sp. (MONISP)", "assay": "microbe, parasite or virus in culture", "assay_type": "cell-based", "details": "Monilinia, 168 h, read-out: Observed efficacy"}, "[8]": {"test_system": "Blumeria graminis f. sp. tritici", "details": "in vivo"}, "[9]": {"test_system": "Cercospora sojina (CERCSO)", "assay_type": "cell-based"}, "[10]": {"test_system": "Phakopsora pachyrhizi", "details": "in vivo"}, "[11]": {"test_system": "Blumeria graminis f. sp. tritici", "assay": "Green house use example 11: control of powdery mildew on wheat, sprayed 2 days after inoculation (ERYSGT K2)", "assay_type": "in vivo", "details": "G143A strain, single active"}, "[12]": {"test_system": "Phakopsora pachyrhizi", "assay": "Green house use example 13: curative control of soybean rust on soybeans (PHAKPA F129L K4)", "assay_type": "in vivo"}, "[13]": {"test_system": "Puccinia triticina (syn. P. recondita)", "assay": "Green house use example 9: curative control of brown rust on wheat (PUCCRT K4)", "assay_type": "in vivo"}, "[14]": {"test_system": "Puccinia triticina (syn. P. recondita)", "assay": "Green house use example 10: preventative control of brown rust on wheat (PUCCRT P10)", "assay_type": "in vivo", "details": "wheat, sprayed 10 days before inoculation; single active, 1 ppm"}, "[15]": {"test_system": "Phakopsora pachyrhizi", "assay": "Green house use example 14: protective control of soybean rust on soybeans (PHAKPA F129L P2)", "assay_type": "in vivo", "details": "single compound, 0.5 ppm"}, "[16]": {"details": "Sclerotinia sclerotiorum, 168 h, read-out: Observed efficacy"}, "[17]": {"details": "Pyrenophora teres, 168 h, read-out: Observed efficacy"}, "[18]": {"details": "Trial 1, single compound, 4 ppm"}, "[19]": {"details": "Trial 1, single compound, 1 ppm"}, "[20]": {"details": "Trial 3, single compound, 4 ppm"}, "[21]": {"details": "Trial 2, single compound, 1 ppm"}}, "note": "Several values for one entry are separate records, joined by “and”; a condition that tells them apart may be missing. Identical values can stand only once. Like-named read-outs stand apart in the source and are kept apart here.", "data": [{"smiles": "Cc1nc2c(F)c(F)ccc2cc1Oc1cccc(F)c1C(C)(C)O", "note": "[ipflufenoquin, reference compound]", "values": [{"measurement": "Observed efficacy", "setting": "[1]", "value": "4 and 3"}, {"measurement": "Observed efficacy", "setting": "[2]; 0.004 ppm", "value": 12, "unit": "%"}, {"measurement": "Observed efficacy", "setting": "[2]; 0.016 ppm", "value": 15, "unit": "%"}, {"measurement": "Observed efficacy", "setting": "[2]; 0.063 ppm", "value": 12, "unit": "%"}, {"measurement": "Observed efficacy", "setting": "[3]", "value": 11, "unit": "%"}, {"measurement": "Observed efficacy", "setting": "[4]", "value": "48 and 41 and 26"}]}, {"smiles": "CC(Cc1ccc(C(C)(C)C)cc1)CN1C[C@@H](C)O[C@@H](C)C1", "note": "(stereo partly shown) [fenpropimorph, reference compound]", "values": [{"measurement": "inhibition of growth at 1 ppm", "setting": "[1]; [16]", "value": 39, "unit": "%"}, {"measurement": "inhibition of growth at 4 ppm", "setting": "[1]; [16]", "value": 65, "unit": "%"}, {"measurement": "inhibition of growth at 1 ppm", "setting": "[5]; [17]", "value": 33, "unit": "%"}, {"measurement": "inhibition of growth at 0.25 ppm", "setting": "[6]", "value": 18, "unit": "%"}, {"measurement": "inhibition of growth at 1 ppm", "setting": "[6]", "value": 61, "unit": "%"}, {"measurement": "inhibition of growth at 0.016 ppm", "setting": "[7]", "value": 2, "unit": "%"}, {"measurement": "inhibition of growth at 0.016 ppm", "setting": "[2]", "value": 0, "unit": "%"}, {"measurement": "Observed efficacy", "setting": "[8]", "value": 16}, {"measurement": "Observed efficacy", "setting": "[9]", "value": 3, "unit": "%"}, {"measurement": "Observed efficacy", "setting": "[10]", "value": 0}, {"measurement": "inhibition of growth at 0.063 ppm", "setting": "[4]", "value": 0, "unit": "%"}, {"measurement": "inhibition of growth at 0.25 ppm", "setting": "[4]", "value": 0, "unit": "%"}, {"measurement": "inhibition of growth at 1 ppm", "setting": "[4]", "value": 44, "unit": "%"}, {"measurement": "Observed efficacy", "setting": "[11]; 16 ppm", "value": 32}, {"measurement": "Observed efficacy", "setting": "[11]; 63 ppm", "value": 35}, {"measurement": "Observed efficacy", "setting": "[12]; [18]", "value": 8}, {"measurement": "Observed efficacy", "setting": "[12]; Trial 1, single compound, 12 ppm", "value": 13}, {"measurement": "Observed efficacy", "setting": "[12]; Trial 2, single compound, 4 ppm", "value": 6}, {"measurement": "Observed efficacy", "setting": "[12]; Trial 2, single compound, 16 ppm", "value": 11}]}, {"smiles": "CO/C=C(/C(=O)OC)c1cccc(C)c1CO/N=C(\\COC)c1ccc(F)cc1F", "note": "[I.7, Methyl (E)-2-[2-[[(Z)-[1-(2,4-difluorophenyl)-2-methoxy-ethylidene]amino]oxymethyl]-3-methyl-phenyl]-3-methoxy-prop-2-enoate]", "values": [{"measurement": "inhibition of growth at 0.016 ppm", "setting": "[1]; [16]", "value": 3, "unit": "%"}, {"measurement": "inhibition of growth at 0.063 ppm", "setting": "[1]; [16]", "value": 2, "unit": "%"}, {"measurement": "inhibition of growth at 0.25 ppm", "setting": "[1]; [16]", "value": 20, "unit": "%"}, {"measurement": "inhibition of growth at 0.016 ppm", "setting": "[5]; [17]", "value": 19, "unit": "%"}, {"measurement": "inhibition of growth at 0.063 ppm", "setting": "[5]; [17]", "value": 46, "unit": "%"}, {"measurement": "inhibition of growth at 0.25 ppm", "setting": "[5]; [17]", "value": 76, "unit": "%"}, {"measurement": "inhibition of growth at 0.004 ppm", "setting": "[6]", "value": 8, "unit": "%"}, {"measurement": "inhibition of growth at 0.016 ppm", "setting": "[6]", "value": 2, "unit": "%"}, {"measurement": "inhibition of growth at 0.063 ppm", "setting": "[6]", "value": 32, "unit": "%"}, {"measurement": "inhibition of growth at 0.063 ppm", "setting": "[7]", "value": 45, "unit": "%"}, {"measurement": "inhibition of growth at 0.016 ppm", "setting": "[2]", "value": 27, "unit": "%"}, {"measurement": "inhibition of growth at 0.063 ppm", "setting": "[2]", "value": 66, "unit": "%"}, {"measurement": "Observed efficacy", "setting": "[13]; [19]", "value": 9}, {"measurement": "Observed efficacy", "setting": "[13]; [18]", "value": 67}, {"measurement": "Observed efficacy", "setting": "[14]", "value": 19}, {"measurement": "Observed efficacy", "setting": "[9]", "value": "2% and 0%"}, {"measurement": "inhibition of growth at 0.063 ppm", "setting": "[4]", "value": 0, "unit": "%"}, {"measurement": "inhibition of growth at 0.25 ppm", "setting": "[4]", "value": 55, "unit": "%"}, {"measurement": "Observed efficacy", "setting": "[15]", "value": 85}, {"measurement": "Observed efficacy", "setting": "[12]; [18]", "value": 41}, {"measurement": "Observed efficacy", "setting": "[12]; [20]", "value": 74}]}, {"smiles": "CO/C=C(/C(=O)OC)c1cccc(Cl)c1CO/N=C(\\COC)c1ccccc1", "note": "[I.1, Methyl-(E)-2-[3-chloro-2-[[(Z)-(2-methoxy-1-phenyl-ethylidene)amino]oxymethyl]-phenyl]-3-methoxy-prop-2-enoate]", "values": [{"measurement": "inhibition of growth at 0.063 ppm", "setting": "[1]; [16]", "value": 2, "unit": "%"}, {"measurement": "inhibition of growth at 0.016 ppm", "setting": "[5]; [17]", "value": 14, "unit": "%"}, {"measurement": "inhibition of growth at 0.063 ppm", "setting": "[5]; [17]", "value": 48, "unit": "%"}, {"measurement": "inhibition of growth at 0.25 ppm", "setting": "[5]; [17]", "value": 72, "unit": "%"}, {"measurement": "inhibition of growth at 0.016 ppm", "setting": "[6]", "value": 12, "unit": "%"}, {"measurement": "inhibition of growth at 0.063 ppm", "setting": "[6]", "value": 29, "unit": "%"}, {"measurement": "inhibition of growth at 0.016 ppm", "setting": "[2]", "value": 25, "unit": "%"}, {"measurement": "inhibition of growth at 0.063 ppm", "setting": "[2]", "value": 64, "unit": "%"}, {"measurement": "Observed efficacy", "setting": "[8]", "value": 0}, {"measurement": "Observed efficacy", "setting": "[13]; [19]", "value": 3}, {"measurement": "Observed efficacy", "setting": "[13]; [18]", "value": 58}, {"measurement": "Observed efficacy", "setting": "[13]; [21]", "value": 0}, {"measurement": "Observed efficacy", "setting": "[10]", "value": 61}, {"measurement": "inhibition of growth at 0.063 ppm", "setting": "[4]", "value": 0, "unit": "%"}, {"measurement": "inhibition of growth at 0.25 ppm", "setting": "[4]", "value": 45, "unit": "%"}, {"measurement": "Observed efficacy", "setting": "[15]", "value": 80}, {"measurement": "Observed efficacy", "setting": "[12]; [18]", "value": 37}, {"measurement": "Observed efficacy", "setting": "[12]; [20]", "value": 71}]}, {"smiles": "COc1ccnc(C(=O)N[C@@H](C)C(=O)O[C@@H](C)C(c2ccc(F)cc2)c2ccc(F)cc2)c1OC(C)=O", "note": "[florylpicoxamid, reference compound]", "values": [{"measurement": "Observed efficacy", "setting": "[5]", "value": "39 and 21"}, {"measurement": "Observed efficacy", "setting": "[2]; 0.016 ppm", "value": 66, "unit": "%"}, {"measurement": "Observed efficacy", "setting": "[3]", "value": 13, "unit": "%"}, {"measurement": "Observed efficacy", "setting": "[9]", "value": 16, "unit": "%"}]}, {"smiles": "CO/C=C(/C(=O)OC)c1cccc(Cl)c1CO/N=C(\\COC)c1c(F)cc(F)cc1F", "note": "[I.9, Methyl-(E)-2-[3-chloro-2-[[(Z)-[2-methoxy-1-(2,4,6-trifluorophenyl)ethylidene]-amino]oxymethyl]phenyl]-3-methoxy-prop-2-enoate]", "values": [{"measurement": "inhibition of growth at 0.063 ppm", "setting": "[1]; [16]", "value": 11, "unit": "%"}, {"measurement": "inhibition of growth at 1 ppm", "setting": "[1]; [16]", "value": 50, "unit": "%"}, {"measurement": "inhibition of growth at 0.016 ppm", "setting": "[5]; [17]", "value": 7, "unit": "%"}, {"measurement": "inhibition of growth at 0.063 ppm", "setting": "[5]; [17]", "value": 44, "unit": "%"}, {"measurement": "inhibition of growth at 0.25 ppm", "setting": "[5]; [17]", "value": 74, "unit": "%"}, {"measurement": "inhibition of growth at 0.004 ppm", "setting": "[6]", "value": 1, "unit": "%"}, {"measurement": "inhibition of growth at 0.063 ppm", "setting": "[6]", "value": 3, "unit": "%"}, {"measurement": "inhibition of growth at 0.001 ppm", "setting": "[7]", "value": 17, "unit": "%"}, {"measurement": "inhibition of growth at 0.063 ppm", "setting": "[7]", "value": 42, "unit": "%"}, {"measurement": "inhibition of growth at 0.25 ppm", "setting": "[7]", "value": 76, "unit": "%"}, {"measurement": "inhibition of growth at 0.063 ppm", "setting": "[2]", "value": 32, "unit": "%"}, {"measurement": "Observed efficacy", "setting": "[13]; [21]", "value": 0}, {"measurement": "Observed efficacy", "setting": "[13]; Trial 2, single compound, 2 ppm", "value": 0}, {"measurement": "Observed efficacy", "setting": "[10]", "value": 60}, {"measurement": "inhibition of growth at 0.063 ppm", "setting": "[4]", "value": 0, "unit": "%"}, {"measurement": "inhibition of growth at 0.25 ppm", "setting": "[4]", "value": 6, "unit": "%"}, {"measurement": "inhibition of growth at 1 ppm", "setting": "[4]", "value": 60, "unit": "%"}, {"measurement": "Observed efficacy", "setting": "[15]", "value": 59}, {"measurement": "Observed efficacy", "setting": "[12]; [18]", "value": 12}, {"measurement": "Observed efficacy", "setting": "[12]; [20]", "value": 3}]}]}
